Numbers after ± are expanded uncertainties.
Experiment: wn = mass fraction of the nth substance listed
Settings: Gas, Burnett expansion method

FCC(F)(F)F [1,1,1,2-tetrafluoroethane] + CCC
Settings	mass density [kg/m3]
272.14 K, 376.9 kPa, w2 = 0.4	12.2714 ± 0.73
272.14 K, 486.9 kPa, w2 = 0.4	16.3457 ± 0.75
275.01 K, 306 kPa, w2 = 0.6	8.178 ± 0.58
275.01 K, 398.5 kPa, w2 = 0.6	10.8743 ± 0.61
275.01 K, 514 kPa, w2 = 0.6	14.4598 ± 0.63
275.02 K, 233.7 kPa, w2 = 0.6	6.1499 ± 0.56
275.03 K, 233.5 kPa, w2 = 0.55	6.3604 ± 0.58
275.04 K, 177.6 kPa, w2 = 0.55	4.7832 ± 0.56
275.04 K, 259 kPa, w2 = 0.65	6.6072 ± 0.55
275.04 K, 397.9 kPa, w2 = 0.55	11.2458 ± 0.63
275.04 K, 513.5 kPa, w2 = 0.55	14.954 ± 0.67
275.05 K, 134.8 kPa, w2 = 0.55	3.597 ± 0.55
275.05 K, 197.5 kPa, w2 = 0.65	4.9688 ± 0.53
275.05 K, 305.8 kPa, w2 = 0.55	8.4571 ± 0.6
275.05 K, 338.2 kPa, w2 = 0.65	8.7857 ± 0.57
275.06 K, 150.2 kPa, w2 = 0.65	3.7365 ± 0.52
275.06 K, 438.6 kPa, w2 = 0.65	11.682 ± 0.58
276.01 K, 525 kPa, w2 = 0.5	16.127 ± 0.68
276.07 K, 240.8 kPa, w2 = 0.5	6.8235 ± 0.6
276.07 K, 314.5 kPa, w2 = 0.5	9.08914 ± 0.64
276.08 K, 138.3 kPa, w2 = 0.5	3.84563 ± 0.58
276.08 K, 182.4 kPa, w2 = 0.5	5.12246 ± 0.58
276.08 K, 408.6 kPa, w2 = 0.5	12.1069 ± 0.68
276.09 K, 131.9 kPa, w2 = 0.4	3.96275 ± 0.63
276.09 K, 173.8 kPa, w2 = 0.4	5.27854 ± 0.64
276.09 K, 228.4 kPa, w2 = 0.4	7.03132 ± 0.66
276.09 K, 299.1 kPa, w2 = 0.4	9.36594 ± 0.68
276.09 K, 389.5 kPa, w2 = 0.4	12.4758 ± 0.72
276.09 K, 503.4 kPa, w2 = 0.4	16.618 ± 0.74
276.23 K, 613 kPa, w2 = 0.45	19.9443 ± 0.76
276.24 K, 369.2 kPa, w2 = 0.45	11.24 ± 0.67
276.25 K, 215.6 kPa, w2 = 0.45	6.3345 ± 0.62
276.25 K, 282.9 kPa, w2 = 0.45	8.43787 ± 0.64
276.25 K, 478.6 kPa, w2 = 0.45	14.9718 ± 0.72
276.26 K, 163.8 kPa, w2 = 0.45	4.75547 ± 0.61
278.98 K, 613.4 kPa, w2 = 0.55	18.0169 ± 0.75
278.99 K, 431 kPa, w2 = 0.65	11.2429 ± 0.59
279 K, 193.1 kPa, w2 = 0.65	4.7818 ± 0.52
279 K, 253.6 kPa, w2 = 0.65	6.3584 ± 0.53
279 K, 331.6 kPa, w2 = 0.65	8.4549 ± 0.55
279 K, 555.1 kPa, w2 = 0.65	14.9493 ± 0.61
279.04 K, 478.7 kPa, w2 = 0.55	13.5464 ± 0.65
279.05 K, 201 kPa, w2 = 0.6	5.1513 ± 0.53
279.05 K, 264.1 kPa, w2 = 0.6	6.8498 ± 0.55
279.06 K, 152.4 kPa, w2 = 0.6	3.874 ± 0.53
279.06 K, 345.5 kPa, w2 = 0.6	9.1083 ± 0.58
279.06 K, 369.2 kPa, w2 = 0.55	10.1866 ± 0.6
279.06 K, 448.9 kPa, w2 = 0.6	12.1114 ± 0.61
279.06 K, 577.6 kPa, w2 = 0.6	16.1046 ± 0.65
279.07 K, 163.6 kPa, w2 = 0.55	4.3324 ± 0.55
279.07 K, 282.8 kPa, w2 = 0.55	7.6605 ± 0.58
279.08 K, 215.4 kPa, w2 = 0.55	5.7608 ± 0.56
280.01 K, 670.7 kPa, w2 = 0.4	22.729 ± 0.8
280.02 K, 180.8 kPa, w2 = 0.4	5.41974 ± 0.63
280.02 K, 237.8 kPa, w2 = 0.4	7.21933 ± 0.65
280.02 K, 311.5 kPa, w2 = 0.4	9.61644 ± 0.67
280.02 K, 405.9 kPa, w2 = 0.4	12.8096 ± 0.71
280.02 K, 524.7 kPa, w2 = 0.4	17.0629 ± 0.76
280.17 K, 150 kPa, w2 = 0.45	4.28073 ± 0.61
280.17 K, 197.2 kPa, w2 = 0.45	5.70206 ± 0.62
280.17 K, 436.6 kPa, w2 = 0.45	13.4767 ± 0.7
280.18 K, 257.8 kPa, w2 = 0.45	7.59526 ± 0.63
280.18 K, 336.4 kPa, w2 = 0.45	10.1172 ± 0.66
280.18 K, 562.4 kPa, w2 = 0.45	17.9508 ± 0.69
280.2 K, 176.2 kPa, w2 = 0.5	4.88417 ± 0.64
280.2 K, 228 kPa, w2 = 0.5	6.50598 ± 0.63
280.2 K, 295.2 kPa, w2 = 0.5	8.66625 ± 0.66
280.2 K, 382.2 kPa, w2 = 0.5	11.5437 ± 0.69
280.2 K, 490.7 kPa, w2 = 0.5	15.3768 ± 0.75
280.2 K, 626.5 kPa, w2 = 0.5	20.4828 ± 0.77
282.96 K, 514.9 kPa, w2 = 0.6	16.8632 ± 0.73
282.98 K, 397.4 kPa, w2 = 0.6	10.4251 ± 0.89
282.98 K, 629.9 kPa, w2 = 0.6	18.4329 ± 0.21
282.99 K, 232 kPa, w2 = 0.6	5.8957 ± 0.53
282.99 K, 301.9 kPa, w2 = 0.65	7.5146 ± 0.53
282.99 K, 304.4 kPa, w2 = 0.6	7.8397 ± 0.55
282.99 K, 353.3 kPa, w2 = 0.55	9.521 ± 0.59
282.99 K, 510.2 kPa, w2 = 0.65	13.287 ± 0.61
282.99 K, 592.4 kPa, w2 = 0.55	16.8344 ± 0.67
283 K, 155.9 kPa, w2 = 0.55	4.0493 ± 0.54
283 K, 176.1 kPa, w2 = 0.6	4.4337 ± 0.53
283 K, 205.5 kPa, w2 = 0.55	5.3845 ± 0.55
283 K, 230.2 kPa, w2 = 0.65	5.6511 ± 0.52
283 K, 270 kPa, w2 = 0.55	7.1599 ± 0.56
283 K, 393.8 kPa, w2 = 0.65	9.9922 ± 0.56
283 K, 459.5 kPa, w2 = 0.55	12.6599 ± 0.63
283 K, 653.6 kPa, w2 = 0.65	17.6674 ± 0.63
283.01 K, 175 kPa, w2 = 0.65	4.2497 ± 0.51
283.86 K, 174.7 kPa, w2 = 0.4	5.14203 ± 0.62
283.87 K, 229.9 kPa, w2 = 0.4	6.84912 ± 0.63
283.87 K, 301.6 kPa, w2 = 0.4	9.12315 ± 0.65
283.88 K, 393.6 kPa, w2 = 0.4	12.1512 ± 0.68
283.9 K, 510.3 kPa, w2 = 0.4	16.1858 ± 0.73
283.94 K, 655.1 kPa, w2 = 0.4	21.5571 ± 0.77
284.1 K, 397.4 kPa, w2 = 0.45	11.7333 ± 0.65
284.1 K, 515.6 kPa, w2 = 0.45	15.6293 ± 0.7
284.1 K, 662.3 kPa, w2 = 0.45	20.819 ± 0.72
284.11 K, 176.2 kPa, w2 = 0.45	4.96426 ± 0.59
284.11 K, 231.9 kPa, w2 = 0.45	6.61256 ± 0.6
284.11 K, 304.4 kPa, w2 = 0.45	8.80835 ± 0.62
284.11 K, 711.7 kPa, w2 = 0.5	21.5401 ± 0.72
284.12 K, 555.4 kPa, w2 = 0.5	16.1702 ± 0.68
284.13 K, 189.6 kPa, w2 = 0.5	5.13602 ± 0.56
284.13 K, 249.8 kPa, w2 = 0.5	6.84131 ± 0.58
284.13 K, 327.9 kPa, w2 = 0.5	9.11297 ± 0.6
284.13 K, 428.3 kPa, w2 = 0.5	12.139 ± 0.63
287 K, 196.2 kPa, w2 = 0.6	4.8811 ± 0.52
287 K, 768.5 kPa, w2 = 0.65	20.9537 ± 0.65
287.01 K, 258.3 kPa, w2 = 0.6	6.4904 ± 0.53
287.01 K, 274.8 kPa, w2 = 0.65	6.7019 ± 0.52
287.01 K, 311.4 kPa, w2 = 0.55	8.1881 ± 0.56
287.01 K, 338.5 kPa, w2 = 0.6	8.6303 ± 0.55
287.01 K, 406.7 kPa, w2 = 0.55	10.8878 ± 0.59
287.01 K, 527.4 kPa, w2 = 0.55	14.4779 ± 0.63
287.01 K, 571.1 kPa, w2 = 0.6	15.26 ± 0.62
287.01 K, 603.8 kPa, w2 = 0.65	15.7575 ± 0.62
287.01 K, 677.5 kPa, w2 = 0.55	19.2516 ± 0.66
287.01 K, 730.6 kPa, w2 = 0.6	20.2911 ± 0.66
287.02 K, 180 kPa, w2 = 0.55	4.6307 ± 0.54
287.02 K, 209 kPa, w2 = 0.65	5.0401 ± 0.51
287.02 K, 237.2 kPa, w2 = 0.55	6.1576 ± 0.54
287.02 K, 359.7 kPa, w2 = 0.65	8.9115 ± 0.54
287.02 K, 441.6 kPa, w2 = 0.6	11.4756 ± 0.58
287.02 K, 467.8 kPa, w2 = 0.65	11.85 ± 0.57
287.89 K, 145.9 kPa, w2 = 0.4	4.20423 ± 0.6
287.89 K, 192.3 kPa, w2 = 0.4	5.60013 ± 0.61
287.89 K, 253 kPa, w2 = 0.4	7.45965 ± 0.63
287.89 K, 331.1 kPa, w2 = 0.4	9.93648 ± 0.65
287.9 K, 431.5 kPa, w2 = 0.4	13.2354 ± 0.69
287.9 K, 558 kPa, w2 = 0.4	17.6298 ± 0.74
287.93 K, 714.8 kPa, w2 = 0.4	23.4815 ± 0.77
288.06 K, 650.7 kPa, w2 = 0.45	19.9802 ± 0.74
288.07 K, 171.7 kPa, w2 = 0.45	4.76422 ± 0.58
288.07 K, 226.1 kPa, w2 = 0.45	6.34615 ± 0.59
288.07 K, 297 kPa, w2 = 0.45	8.45356 ± 0.61
288.07 K, 388.5 kPa, w2 = 0.45	11.2604 ± 0.64
288.07 K, 505 kPa, w2 = 0.45	14.9994 ± 0.68
288.07 K, 827.4 kPa, w2 = 0.45	26.6134 ± 0.78
288.18 K, 242.5 kPa, w2 = 0.5	6.52495 ± 0.57
288.18 K, 416.8 kPa, w2 = 0.5	11.5774 ± 0.61
288.19 K, 184.1 kPa, w2 = 0.5	4.89841 ± 0.55
288.19 K, 318.7 kPa, w2 = 0.5	8.69128 ± 0.58
288.19 K, 541.6 kPa, w2 = 0.5	15.4214 ± 0.65
288.19 K, 696.9 kPa, w2 = 0.5	20.5413 ± 0.69
291 K, 851.2 kPa, w2 = 0.55	24.7999 ± 0.71
291.01 K, 519.6 kPa, w2 = 0.55	14.0252 ± 0.61
291.01 K, 669.4 kPa, w2 = 0.55	18.65 ± 0.67
291.02 K, 399.8 kPa, w2 = 0.55	10.5472 ± 0.58
291.03 K, 305.7 kPa, w2 = 0.55	7.9316 ± 0.55
291.04 K, 168.3 kPa, w2 = 0.6	4.1049 ± 0.5
291.04 K, 222.1 kPa, w2 = 0.6	5.4582 ± 0.51
291.04 K, 232.6 kPa, w2 = 0.55	5.9647 ± 0.54
291.04 K, 292.1 kPa, w2 = 0.6	7.2581 ± 0.53

Source: the NIST ThermoML archive (doi:10.1016/j.jct.2013.10.031)
